Consider 21 compounds from ChEMBL document CHEMBL3621083, “Dehydroabietylamine derivatives as multifunctional agents for the treatment of Alzheimer's disease” (Medchemcomm, 2014).

The source made the active and inactive calls. The calls are words filed in the database; no cut-off is given here. Where only a bound is given, the exact number is not on record here.

Data set [1] deals with SH-SY5Y. The data set can be described thus: Anti-oxidative activity in human SH-SY5Y cells assessed as reduction of ROS generation at 10 uM using DCFH-DA. In kind it is functional.
For data set [2], the target named is T1, Amyloid-beta precursor protein (Homo sapiens, UniProt P05067). Briefly: Inhibition of amyloid beta-42 (unknown origin) self-mediated aggregation at 50 uM by thioflavin-T fluorescence assay.
The target in data set [3] is T1, Amyloid-beta precursor protein. The data set can be described thus: Inhibition of amyloid beta-42 (unknown origin) aging fibrils disaggregation at 50 uM by thioflavin-T fluorescence assay.
The test system of data set [4] is SH-SY5Y. The data set can be described thus: Cytotoxicity against human SH-SY5Y cells assessed as cell viability at 10 uM after 48 hrs by MTT assay. The format is cell-based.
Data set [5] concerns the target T1, Amyloid-beta precursor protein. The data set can be described thus: Inhibition of amyloid beta-42 (unknown origin) self-mediated aggregation by thioflavin-T fluorescence assay.
Data set [6] has the same target. Briefly: Inhibition of amyloid beta-42 (unknown origin) aging fibrils disaggregation by thioflavin-T fluorescence assay.
Data set [7] has the same target. The data set can be described thus: Inhibition of amyloid beta-42 (unknown origin) beta sheets structure formation at 40 uM after 48 hrs by circular dichroism spectra analysis.
For data set [8] the target is unchanged. The data set can be described thus: Increase of alpha-helics formation in amyloid beta-42 (unknown origin) at 40 uM after 48 hrs by circular dichroism spectra analysis.
Data set [9] has the same target. The data set can be described thus: Inhibition of amyloid beta-42 (unknown origin) fibrils formation at 50 uM after 48 hrs by transmission electron microscopy analysis.
For data set [10] the target is unchanged. Briefly: Inhibition of fibrils formation in aggregated amyloid beta-42 (unknown origin) assessed as short fibril formation at 50 uM after 48 hrs by transmission electron microscopy analysis.
For data set [11], the system named is SH-SY5Y. Briefly: Cytotoxicity against human SH-SY5Y cells assessed as cell viability at 1 to 50 uM after 48 hrs by MTT assay. The format is cell-based.
Data set [12] deals with SH-SY5Y. The data set can be described thus: Neuroprotective activity in human SH-SY5Y cells assessed as protection against amyloid beta-42-induced cell death at 5 to 50 uM after 48 hrs by MTT assay (reference value: 50.02 +/- 4.98%). In kind it is functional.
The subject of data set [13] is Caenorhabditis elegans. The data set can be described thus: Anti-Alzheimer's activity in Caenorhabditis elegans CL4176 expressing amyloid beta assessed as increase of average time of life expectancy at 200 uM (reference value: 46.9 +/- 0.54 hrs). In kind it is functional.
Data set [14] has as its system Caenorhabditis elegans. Briefly: Anti-Alzheimer's activity in Caenorhabditis elegans CL4176 expressing amyloid beta assessed as increase of average time of life expectancy at 500 uM (reference value: 46.9 +/- 0.54 hrs). The format is functional.
For data set [15], the system named is Caenorhabditis elegans. Briefly: Anti-Alzheimer's activity in Caenorhabditis elegans CL4176 expressing amyloid beta assessed as increase of average time of life expectancy at 50 uM (reference value: 46.9 +/- 0.54 hrs). The format is functional.
Data set [16] can be described thus: Cytotoxicity against human HEK293 cells expressing swAPP assessed as cell viability at 25 uM after 48 hrs by MTT assay. The format is cell-based. To be noted: read-out: Activity.
In data set [17] the target is T1, Amyloid-beta precursor protein. Briefly: Inhibition of swAPP-mediated amyloid beta-42 production in human HEK293 cells at 25 uM after 48 hrs by ELISA (reference value: 100 +/-3.45%). In kind it is cell-based. Also on record: scale not given: the % may be the effect or the level left.
Data set [18] has the same target. The data set can be described thus: Inhibition of swAPP-mediated amyloid beta-42 production in human HEK293 cells at 10 uM after 48 hrs by ELISA (reference value: 100 +/-3.45%). In kind it is cell-based. Also on record: scale not given: the % may be the effect or the level left.
In data set [19] the test system is Caenorhabditis elegans. Briefly: Anti-Alzheimer's activity in Caenorhabditis elegans CL4176 assessed as delay in amyloid beta-induced paralysis at 10 to 50 uM after 36 hrs of amyloid beta expression. In kind it is functional, organism-based.
For data set [20], the system named is Caenorhabditis elegans. Briefly: Anti-Alzheimer's activity in Caenorhabditis elegans CL4176 expressing amyloid beta assessed as increase of average time of life expectancy at 10 uM (reference value: 46.9 +/- 0.54 hrs). The format is functional.
The test system of data set [21] is Caenorhabditis elegans. Briefly: Reduction of amyloid beta expression in Caenorhabditis elegans CL4176 at 10 to 50 uM by Western blot analysis. The format is functional, organism-based.
The subject of data set [22] is Caenorhabditis elegans. Briefly: Anti-Alzheimer's activity in Caenorhabditis elegans CL4176 assessed as delay in amyloid beta-induced paralysis at 500 uM after 36 hrs of amyloid beta expression. The format is functional, organism-based.

T1 sequence (P05067 whole entry): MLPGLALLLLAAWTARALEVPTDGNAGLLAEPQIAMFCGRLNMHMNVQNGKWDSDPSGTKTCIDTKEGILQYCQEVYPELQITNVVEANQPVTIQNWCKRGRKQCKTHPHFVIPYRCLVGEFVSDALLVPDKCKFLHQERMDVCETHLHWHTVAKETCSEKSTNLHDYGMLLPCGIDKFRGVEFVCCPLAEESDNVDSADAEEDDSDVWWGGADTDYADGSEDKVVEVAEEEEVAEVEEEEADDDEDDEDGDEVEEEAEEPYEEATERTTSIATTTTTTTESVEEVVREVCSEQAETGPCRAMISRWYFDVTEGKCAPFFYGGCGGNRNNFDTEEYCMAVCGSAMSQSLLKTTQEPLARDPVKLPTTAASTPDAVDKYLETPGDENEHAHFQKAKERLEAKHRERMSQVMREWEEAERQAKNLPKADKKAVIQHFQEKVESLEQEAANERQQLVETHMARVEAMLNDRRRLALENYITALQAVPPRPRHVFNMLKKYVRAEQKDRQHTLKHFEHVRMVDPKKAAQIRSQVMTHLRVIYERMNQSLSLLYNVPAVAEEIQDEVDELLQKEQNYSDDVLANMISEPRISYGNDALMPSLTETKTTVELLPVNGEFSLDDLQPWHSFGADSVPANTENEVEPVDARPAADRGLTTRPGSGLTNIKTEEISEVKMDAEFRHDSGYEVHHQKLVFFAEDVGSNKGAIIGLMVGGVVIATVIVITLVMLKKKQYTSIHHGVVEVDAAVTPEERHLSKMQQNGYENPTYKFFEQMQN

As for `CC(C)c1ccc2c(c1)/C(=N/O)C[C@H]1[C@](C)(CNC(=O)C(F)(F)F)CCC[C@]21C`, in the data set with SH-SY5Y [1], the inhibition at 10 µM is 34.1%. Moreover, the inhibition result in data set [2] and in data set [3] was “inactive” throughout.
On to `CC(=O)NC[C@]1(C)CCC[C@]2(C)c3ccc(C(C)C)cc3/C(=N/OC(=O)c3ccc(Cl)cc3)C[C@@H]12`, for which, in the data set on SH-SY5Y [1], the inhibition at 10 µM was 10.4%. Moreover, the inhibition result in data set [2] and in [3] was “inactive” each time.
On to `CC(=O)NC[C@]1(C)CCC[C@]2(C)c3ccc(C(C)C)cc3/C(=N/NC(C)=O)C[C@@H]12`, for which the inhibition result (in the data set on SH-SY5Y [1]; in data set [2]; in [3]) was “inactive” throughout.
With `CC(=O)NC[C@]1(C)CCC[C@]2(C)c3ccc(C(C)C)cc3/C(=N/O)C[C@@H]12`, the inhibition at 10 µM in the data set with SH-SY5Y [1] came out at 41.2%. Besides, the inhibition entry in data set [2] and in [3] was “inactive” throughout.
Regarding `CC(C)c1ccc2c(c1)/C(=N/NC(=O)c1ccncc1)C[C@H]1[C@](C)(CNC(=O)C(F)(F)F)CCC[C@]21C`, the inhibition entry (in the data set on SH-SY5Y [1]; in data set [2]; in data set [3]) was “inactive” throughout.
Turning to `CC(C)c1c(N)cc2c(c1[N+](=O)[O-])CC[C@H]1[C@](C)(CN)CCC[C@]21C`, the inhibition result (with SH-SY5Y [1]; in data set [2]; in data set [3]) was “inactive” throughout.
For the compound `CC(C)c1ccc2c(c1)C(=O)C[C@H]1[C@](C)(CN)CCC[C@]21C`, the inhibition result (in the data set with SH-SY5Y [1]; in [2]; in [3]) was “inactive” in each case.
Take `CC(=O)NC[C@]1(C)CCC[C@]2(C)c3ccc(C(C)C)cc3/C(=N\NC(N)=S)C[C@@H]12`: the inhibition entry (with SH-SY5Y [1]; in data set [2]; in [3]) was “inactive” each time.
For `CC(C)c1ccc2c(c1)CC[C@H]1[C@](C)(CNC(=O)c3cc(O)c(O)c(O)c3)CCC[C@]21C`, in the data set on SH-SY5Y [1], the inhibition at 10 µM is 50.8%. Moreover, the inhibition in [2] amounted to 74.6%; in [3] it was 49%. Further, in the data set on SH-SY5Y [4], the Activity result is “Non-toxic”.
On to `CC(C)c1ccc2c(c1)C(=O)C[C@H]1[C@](C)(CNC(=O)C(F)(F)F)CCC[C@]21C`, for which the inhibition at 10 µM with SH-SY5Y [1] amounted to 19.8%. The inhibition result in data set [2] and in data set [3] was “inactive” in each case.
For `CC(C)c1ccc2c(c1)CC[C@H]1[C@](C)(CN)CCC[C@]21C`, the inhibition entry (in the data set with SH-SY5Y [1]; in data set [2]; in [3]) was “inactive” each time.
Regarding `CC(C)c1c(N)cc2c(c1[N+](=O)[O-])CC[C@H]1[C@](C)(CNC(=O)c3ccc(O)c(O)c3)CCC[C@]21C`, the inhibition at 10 µM in the data set on SH-SY5Y [1] worked out at 31.2%. Moreover, the figures for the inhibition in data set [2] and in data set [3] were 26.1% and 14.2%, respectively.
The corresponding values for `CC(=O)NC[C@]1(C)CCC[C@]2(C)c3ccc(C(C)C)cc3/C(=N\NC(N)=O)C[C@@H]12` are 13.3%, “inactive” and “inactive”.
As for `CC(C)c1ccc2c(c1)CC[C@H]1[C@](C)(C/N=C\c3ccc(O)cc3O)CCC[C@]21C`, the inhibition at 10 µM with SH-SY5Y [1] came out at 26.1%. In addition, the inhibition in data set [2] was determined as 24.5%; in [3], 10.7%. Also, the Activity entry with SH-SY5Y [4] was “Non-toxic”.
`CC(C)c1c(NC(=O)/C=C/c2ccc(O)c(O)c2)cc2c(c1[N+](=O)[O-])CC[C@H]1[C@](C)(CNC(=O)/C=C/c3ccc(O)c(O)c3)CCC[C@]21C`: the inhibition at 10 µM with SH-SY5Y [1] is 62.4%. In addition, the results for the inhibition in data set [2], in data set [3] and in data set [6] were 92%, 82.8% and “Dose-dependent effect”, respectively. Moreover, in data set [5], it took 3.96 µM to reach half-maximal inhibition (IC50). Also, the inhibition result in data set [7], in data set [9] and in [10] was “Active” in each case. Besides, the result (in data set [8]; with Caenorhabditis elegans [19]; in the data set with Caenorhabditis elegans [21]) was Active. Besides, the Activity entry in the data set on SH-SY5Y [4] is “Non-toxic”; with SH-SY5Y [11], “Non-toxic”; with SH-SY5Y [12], 53.5%; in [17] it was 10.4%; in data set [18] it was 45.6%. For the same compound, the Time in the data set with Caenorhabditis elegans [13] is 48.8 h; in the data set with Caenorhabditis elegans [14], 44.7 h; in the data set with Caenorhabditis elegans [15], 50.5 h; in the data set on Caenorhabditis elegans [20], 48.2 h. For the same compound, the viability at 48 h, 25 µM in data set [16] was greater than 90%.
As for `CC(=O)NC[C@]1(C)CCC[C@]2(C)c3ccc(C(C)C)cc3/C(=N/NC(=O)c3ccncc3)C[C@@H]12`, the inhibition entry (in the data set on SH-SY5Y [1]; in data set [2]; in data set [3]) was “inactive” throughout.
Turning to `CC(=O)Oc1cc(C(=O)NC[C@]2(C)CCC[C@]3(C)c4ccc(C(C)C)cc4CC[C@@H]23)cc(OC(C)=O)c1OC(C)=O`, in the data set with SH-SY5Y [1], the inhibition at 10 µM is 41.8%. Also, the inhibition stood at 55.3% in data set [2] and 37.6% in [3]. In the data set on SH-SY5Y [4], the Activity entry is reported as “Non-toxic”.
On the same counts, the results for `CC(C)c1c(NC(=O)/C=C/c2ccc(O)c(O)c2)cc2c(c1NC(=O)/C=C/c1ccc(O)c(O)c1)CC[C@H]1[C@](C)(CNC(=O)/C=C/c3ccc(O)c(O)c3)CCC[C@]21C` are 53.9%, 93.3%, 82.5% and “Non-toxic”.
As to `COc1cc(/C=C/C(=O)CC(=O)/C=C/c2ccc(O)c(OC)c2)ccc1O` [CURCUMIN], the inhibition at 10 µM with SH-SY5Y [1] came out at 37.9%. In the data set with SH-SY5Y [4], the Activity entry is reported as “Non-toxic”.
`CC(=O)Oc1cc(/C=N\C[C@]2(C)CCC[C@]3(C)c4ccc(C(C)C)cc4CC[C@@H]23)cc(OC(C)=O)c1OC(C)=O`: the inhibition at 10 µM in the data set on SH-SY5Y [1] came out at 48.2%. The inhibition in data set [2] was 20.6%; in data set [3], 8.93%.
`C/C=C1\[C@H]2C=C(C)C[C@]1(N)c1ccc(=O)[nH]c1C2` [HUPERZINE A]: the Time in the data set with Caenorhabditis elegans [14] was 48.3 h. Besides, in the data set on Caenorhabditis elegans [22], the outcome was Active.
